# Assay results: US20250325402A1, “M[…] FOR I[…] METHODS OF USING THE SAME” ([…]., priority 2024, published 2025)
# Assays:
# [1] = set-up: species or system pig
# Description: Ex vivo assessment of ocular biodistribution of ICG with OCLX-SCDD Proof of Concept (POC) prototypes and Clearside needles at 900 and 1100 μm in pig eyes.
# In this non-GLP study, we evaluated the ability of OCLX-SCDD to deliver accurately to the suprachoroidal space (SCS) and determined the optimal needle length for effective delivery. […] Ex vivo testing involved a comparative analysis of the dye's ocular biodistribution between OCLX-SCDD POCs 1-4 and the established Clearside device, allowing us to determine whether the new design offers improved delivery accuracy and effectiveness. Forty pig eyes were obtained from a farm 1 day prior to testing and SC 120 μl injections (5 mg/ml) were performed (one supertemporal injection site/eye) with ICG. Needles used included 900 μm and 1100 μm length samples from both Oculogenex and Clearside (CLS-900 and CLS-1100). One hour after injection, dissection of the eyes was performed. Images were taken with an iPhone 15 Pro camera after removal of retina, RPE/Choroidal tissue. The ICG-stained area was measured by a masked reader with Image-pro Plus 6 (Media Cybernetisc, Rockville, MD, USA) to objectively assess ICG distribution through software.
# [2] = In vivo ocular biodistribution of ICG with OCLX-SCDD POC4 and Clearside needles at 1100 μm; set-up: species or system Yucatan minipig; conditions: for ICG stained area, total coverage area: ICG 5 mg/ml SC, 1 h after injection
# Description: In Vivo assessment of ocular biodistribution of ICG with the OCLX-SCDD POC prototype and Clearside needles at 1100 μm in pig eyes.
# Suprachoroidal injections enable precise, targeted delivery to the retina, retinal pigment epithelium (RPE), and choroid, potentially offering higher bioavailability to the diseased tissues while minimizing impact on anterior segment tissues. To improve the outcome of gene therapy for AMD through the SCS, we tested if the POC4 SCDD results in ICG dye at the back of the eye. […] This allows entrance into the suprachoroidal space in 4-month-old male minipigs (n=4). Indocyanine Green (ICG), 5 mg/ml, was injected using Clearside 1100 μm (OS) or POC4 of the OCLX-SCDD 1100 μm prototype device (OD) as follows: (1) Mark and confirm selected injection site; (2) Insert the microneedle, creating a small dimple on the ocular surface to allow the tissue to displace gently while the needle enters the suprachoroidal space; (3) Inject slowly and deliberately over 5 seconds to decrease discomfort; (4) After finishing the drug injection, hold the microinjector in place for an additional 3-5 seconds. Light pressure should be applied with a cotton swab after microinjector removal for about 5 seconds; and (5) Perform OCT imaging. (6) Euthanasia was performed according to the IACUC protocol, and 1 hour after injection, eyes were microdissected to assess ICG distribution.
# The ICG stained area was measured with Image-pro Plus 6 equipment. […] One of four eyes injected with the OCLX-SCDD 1100 μm POC prototype device had trace amounts of ICG in the vitreous. Based on the results in FIG. 12, to avoid intravitreal injection, alpha prototypes were redesigned to have a shorter length, targeting 925 μm, and future pig studies were performed with this needle length.
# [3] = set-up: species or system Yucatan minipig; conditions: minipig, in vivo
# Description: OCLX-SCDD alpha prototype targeting of the SC space with ICG in pig eyes (FIG. 12).
# Suprachoroidal injections enable precise, targeted delivery to the retina, retinal pigment epithelium (RPE), and choroid, potentially offering higher bioavailability to the diseased tissues while minimizing impact on anterior segment tissues. To improve SC gene therapy outcomes for AMD, we tested the alpha prototype device to determine whether the SCDD results in ICG dye distribution to the posterior pole. […] Indocyanine Green (ICG) (5 mg/ml), OS: 120 μl or OD: 150 μl, was injected using the OCLX-SCDD 925 μm alpha prototype as follows: (1) Mark and confirm selected injection site; (2) Insert the microneedle, being sure to create a small dimple on the ocular surface to allow the tissue to displace gently while the needle enters the suprachoroidal space; (3) Inject slowly and deliberately for 5 seconds; (4) After finishing the drug injection, hold the microinjector in place for an additional 5 seconds. Light pressure should be applied with a cotton swab after microinjector removal for about 5 seconds; and (5) Check IOP after injection. […]
# To evaluate the effect of SC injection, images were taken after removal of the retina and RPE/Choroidal tissue (FIG. 14). The ICG stained area was measured with Image-pro Plus 6. […]
smiles,measurement,setting,value
"CC1(C)C(/C=C/C=C/C=C/C=C2\N(CCCCS(=O)(=O)O)c3ccc4ccccc4c3C2(C)C)=[N+](CCCCS(=O)(=O)[O-])c2ccc3ccccc3c21 [ICG, Indocyanine Green]","OCLX-SCDD prototypes that delivered ICG dye to the SCS alone, no biodistribution to other ocular tissues",[1],100%
same,Comparison of ICG-stained area between POC4 and Clearside 1100 μm device,[2]; 1 hour after SC injection and microdissection,no significant difference
same,"ICG stained area, total coverage area","[2]; minipigs in vivo, device Clearside 1100 μm",55%
same,"ICG stained area, total coverage area","[2]; minipigs in vivo, device OCLX-SCDD POC4 1100 μm",55%
same,Eyes with trace amounts of ICG in the vitreous,"[2]; minipigs in vivo, device OCLX-SCDD 1100 μm POC prototype",One of four
same,Eyes with successful targeting of the SC space,[3],100%
